For orientation: stoichiometry N means the number of molecules, sites or subunits per partner or assembly.

Results on two compounds are retold here after PMC11538602, “Substrate binding and catalytic mechanism of UDP-α-D-galactofuranose: β-galactofuranoside β-(1→5)-galactofuranosyltransferase GfsA” (PNAS Nexus, 2024).

For experiment [1], the target named is T1, GfsA (Aspergillus fumigatus, UniProt B0YDN6).
T1 construct: gene AFUB_096220; soluble catalytic domain, residues 43-537 without transmembrane segment; N-terminal 6xHis-tag (pET15b); E. coli Rosetta-gami B (DE3); 58 kDa; homodimer (120 kDa by gel filtration); GT31
Briefly: X-ray crystal structure, […] A. The class given is binding. To be noted: crystal with UDP and Mn2+ soaked with 50 mM pNP-Galf, pNP group not resolved, only Galf modelled; acceptor site, D335 and D360.

Experiment [2] has as its target GfsA (UDP-α-D-galactofuranose: β-galactofuranoside β-(1→5)-galactofuranosyltransferase) from Aspergillus fumigatus, soluble catalytic domain, residues 43–537 (Aspergillus fumigatus). Briefly: SEC; gel filtration chromatography of GfsA purified with Ni-agarose; broad single peak, estimated 120 kDa against 58 kDa for the monomer.

`OC[C@@H](O)[C@@H]1O[C@@H](O)[C@H](O)[C@H]1O` [Galf]: the “X-ray crystal structure, 2.37 A” value in experiment [1] was “Galf, was present within the depression and hydrogen bonded with D335 and D360”.
As for “GfsA (UDP-α-D-galactofuranose: β-galactofuranoside β-(1→5)-galactofuranosyltransferase) from Aspergillus fumigatus, soluble catalytic domain, residues 43–537 (enzyme)”, the stoichiometry N in experiment [2] was 2.
